# System: HCMV recombinant mutant virus (RV145)
# Assay: microbe, parasite or virus in culture
# Format: cell-based, human cytomegalovirus
# Conditions: HCMV
# Description: Microtiter plate assay. Ninety-six well plate cultures of human foreskin fibroblasts are infected in the presence of inhibitor compound with a HCMV recombinant mutant virus whose genome contains the prokaryotic beta-glucuronidase gene (Jefferson, R. A., S. M. Burgess, and D. Hirsh. 1986. Beta-glucuronidase from Escherichia coli as a gene fusion marker. Proc. Natl. Acad. Sci. USA 83:8447-8451) whose expression is controlled by a viral promoter. An example of such a virus is RV145 (Jones, T. R., V. P. Muzithras, and Y. Gluzman. 1991. Replacement mutagenesis of the human cytomegalovirus genome: US10 and US11 gene products are nonessential. J. Virol. 65:5860-5872). Since it is under the control of a viral promoter, beta-glucuronidase expression is an indirect indicator of growth and replication of HCMV in this assay. At 96 hours post-infection, the infected cell lysates are prepared (using 50 mM sodium phosphate [pH7.0]containing 0.1% Triton X-100 and 0.1% sarkosyl) and assayed for beta-glucuronidase activity using a substrate for the enzyme which when cleaved yields either a product which can be measured […] in a spectrophotometer or fluorescently in a microfluorimeter. Examples of such substrates are p-nitrophenyl-beta-D-glucuronide and methylumbelliferylglucuronide, respectively. The presence of an antiviral compound is indicated by the reduced expression of the HCMV genome resident beta-glucuronidase gene, compared to the absence of inhibitor. […] Data from this assay generated using varying amounts of inhibitor compound is also used to estimate the IC50 of an inhibitor compound.
row,SMILES,IC50 ug/ml HCMV
1,COc1cc(OC)c(NC(=S)Nc2ccc(NC(=O)c3cccc(C(=O)O)c3)cc2)cc1Cl [Example 209],>50 µg/mL
2,COc1cc(OC)c(NC(=S)Nc2ccc(NC(=O)c3cccc(OCc4ccccc4)c3)cc2)cc1Cl [Example 210],>10 µg/mL
3,CCCCOc1cccc(C(=O)Nc2ccc(NC(=S)Nc3cc(Cl)c(OC)cc3OC)cc2)c1 [Example 219],>10 µg/mL
4,COc1cc(OC)c(NC(=S)Nc2ccc(NC(=O)c3ccccc3[S+](C)[O-])cc2)cc1Cl (stereo not drawn) [Example 220],>10 µg/mL
5,CCOC(=O)COc1cccc(C(=O)Nc2ccc(NC(=S)Nc3cc(Cl)c(OC)cc3OC)cc2)c1 [Example 221],>10 µg/mL
6,COc1cc(OC)c(NC(=S)Nc2ccc(NC(=O)c3cccc(OCC(=O)O)c3)cc2)cc1Cl [Example 222],>50 µg/mL
7,Cc1ccc(NC(=S)Nc2ccc(NC(=O)c3ccccc3F)cc2)cc1Cl [Example 231],>10 µg/mL
8,COc1cccc(C(=O)Nc2ccc(NC(=S)Nc3ccc(C)c(Cl)c3)cc2)c1 [Example 232],>10 µg/mL

# Same assay, conditions: Human betaherpesvirus 5, read-out: IC50 ug/ml HCMV, HCMV
row,SMILES,IC50
1,COc1cc(OC)c(NC(=S)Nc2ccc(NC(=O)c3ccccc3Br)cc2)cc1Cl [Example 142],10 µg/mL

# System: HSV-1
# Assay: HSV Antiviral (ELISA) Assay in Vero cells
# Format: cell-based, herpes simplex virus type 1
# Conditions: HSV-1, Vero cells
# In short: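 Viral replication was quantified by cell-fixed ELISA for HSV glycoprotein D, using a β-galactosidase reporter and fluorogenic umbelliferyl substrate, about 24 h after HSV-1 infection (MOI 0.006) of Vero cells. Compounds, at several concentrations, were added 30 min pre-infection. IC50 was derived from fluorescence relative to the compound-free signal.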
row,SMILES,IC50 (ug/ml) HSV
1,COc1cc(OC)c(NC(=S)Nc2ccc(NC(=O)c3cccc(C(=O)O)c3)cc2)cc1Cl [Example 209],>50 µg/mL
2,COc1cc(OC)c(NC(=S)Nc2ccc(NC(=O)c3cccc(OCc4ccccc4)c3)cc2)cc1Cl [Example 210],5 µg/mL
3,CCCCOc1cccc(C(=O)Nc2ccc(NC(=S)Nc3cc(Cl)c(OC)cc3OC)cc2)c1 [Example 219],2.5 µg/mL
4,COc1cc(OC)c(NC(=S)Nc2ccc(NC(=O)c3ccccc3[S+](C)[O-])cc2)cc1Cl (stereo not drawn) [Example 220],>10 µg/mL
5,CCOC(=O)COc1cccc(C(=O)Nc2ccc(NC(=S)Nc3cc(Cl)c(OC)cc3OC)cc2)c1 [Example 221],>10 µg/mL
6,COc1cc(OC)c(NC(=S)Nc2ccc(NC(=O)c3cccc(OCC(=O)O)c3)cc2)cc1Cl [Example 222],>50 µg/mL
7,Cc1ccc(NC(=S)Nc2ccc(NC(=O)c3ccccc3F)cc2)cc1Cl [Example 231],0.5 µg/mL
8,COc1cccc(C(=O)Nc2ccc(NC(=S)Nc3ccc(C)c(Cl)c3)cc2)c1 [Example 232],1 µg/mL

# Same assay, conditions: Human alphaherpesvirus 1; HSV-1, Vero cells; read-out: IC50 (ug/ml) HSV
row,SMILES,IC50
1,COc1cc(OC)c(NC(=S)Nc2ccc(NC(=O)c3ccccc3Br)cc2)cc1Cl [Example 142],0.4 µg/mL

# System: VZV strain Ellen
# Assay: VZV Antiviral (ELISA) Assay in human foreskin fibroblast cells
# Format: cell-based, varicella-zoster virus
# Conditions: not given
# In short: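 Low-MOI (<0.1) Ellen infection of HFF overnight; cell mix plated 3.5×10^4/well with compound, DMEM + 2% FBS, 3 d, 37° C, 5% CO2. Fix, anti-gpII mAb ELISA, MUG substrate, fluorescence. IC50 vs compound-free signal.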
row,SMILES,IC50 (ug/ml) VZV
1,COc1cc(OC)c(NC(=S)Nc2ccc(NC(=O)c3cccc(C(=O)O)c3)cc2)cc1Cl [Example 209],>10 µg/mL
2,COc1cc(OC)c(NC(=S)Nc2ccc(NC(=O)c3cccc(OCc4ccccc4)c3)cc2)cc1Cl [Example 210],>10 µg/mL
3,CCCCOc1cccc(C(=O)Nc2ccc(NC(=S)Nc3cc(Cl)c(OC)cc3OC)cc2)c1 [Example 219],>10 µg/mL
4,COc1cc(OC)c(NC(=S)Nc2ccc(NC(=O)c3ccccc3[S+](C)[O-])cc2)cc1Cl (stereo not drawn) [Example 220],>10 µg/mL
5,CCOC(=O)COc1cccc(C(=O)Nc2ccc(NC(=S)Nc3cc(Cl)c(OC)cc3OC)cc2)c1 [Example 221],>10 µg/mL
6,COc1cc(OC)c(NC(=S)Nc2ccc(NC(=O)c3cccc(OCC(=O)O)c3)cc2)cc1Cl [Example 222],>10 µg/mL
7,Cc1ccc(NC(=S)Nc2ccc(NC(=O)c3ccccc3F)cc2)cc1Cl [Example 231],>10 µg/mL
8,COc1cccc(C(=O)Nc2ccc(NC(=S)Nc3ccc(C)c(Cl)c3)cc2)c1 [Example 232],>10 µg/mL

# Same assay, conditions: 10 ug/ml
row,SMILES,% inhibition 10 ug/ml VZV
1,COc1cc(OC)c(NC(=S)Nc2ccc(NC(=O)c3cccc(C(=O)O)c3)cc2)cc1Cl [Example 209],22%
2,COc1cc(OC)c(NC(=S)Nc2ccc(NC(=O)c3cccc(OCc4ccccc4)c3)cc2)cc1Cl [Example 210],14%
3,CCCCOc1cccc(C(=O)Nc2ccc(NC(=S)Nc3cc(Cl)c(OC)cc3OC)cc2)c1 [Example 219],30%
4,COc1cc(OC)c(NC(=S)Nc2ccc(NC(=O)c3ccccc3[S+](C)[O-])cc2)cc1Cl (stereo not drawn) [Example 220],35%
5,CCOC(=O)COc1cccc(C(=O)Nc2ccc(NC(=S)Nc3cc(Cl)c(OC)cc3OC)cc2)c1 [Example 221],17%
6,COc1cc(OC)c(NC(=S)Nc2ccc(NC(=O)c3cccc(OCC(=O)O)c3)cc2)cc1Cl [Example 222],17%
7,Cc1ccc(NC(=S)Nc2ccc(NC(=O)c3ccccc3F)cc2)cc1Cl [Example 231],11%
8,COc1cccc(C(=O)Nc2ccc(NC(=S)Nc3ccc(C)c(Cl)c3)cc2)c1 [Example 232],21%

# Same assay, conditions: Human alphaherpesvirus 3, Fibroblast, read-out: % inhibition 10 ug/ml VZV, 10 ug/ml
row,SMILES,inhibition at 10 µg/mL
1,COc1cc(OC)c(NC(=S)Nc2ccc(NC(=O)c3ccccc3Br)cc2)cc1Cl [Example 142],51%

# Same assay, conditions: Human alphaherpesvirus 3, Fibroblast, read-out: IC50 (ug/ml) VZV
row,SMILES,IC50
1,COc1cc(OC)c(NC(=S)Nc2ccc(NC(=O)c3ccccc3Br)cc2)cc1Cl [Example 142],> 15 µg/mL
